Experimental data reported in ChEMBL document CHEMBL2113921, “Open Source Malaria Deposition 1. http://malaria.ourexperiment.org” (2013).
Converted amounts (≈) assume the structure as drawn. The source made the active and inactive calls. The rule behind the calls is not given here.

Assays:
Plasmodium falciparum [1] = experiment: OSM: Inhibition of Plasmodium falciparum 3D7 growth. IC50 values determined from 21 point dose response curves. Avery Group Griffith.; type: functional, organism-based
Plasmodium falciparum [2] = experiment: OSM: Inhibition of Plasmodium falciparum 3D7 growth using a SYBR green I fluorescence based assay. Dose response curves were generated comprising of 8 points using a 2-fold serial dilution for the maximum final concentration of 1000 nM. Ralph Group, Bio21.; type: functional, organism-based
Plasmodium falciparum [3] = experiment: OSM: Inhibition of Plasmodium falciparum 3D7 growth using a SYBR green I fluorescence based assay. GSK Tres Cantos.; type: functional, organism-based
Plasmodium falciparum [4] = experiment: OSM: Percent inhibition of Plasmodium falciparum 3D7 growth at 40 uM. Avery Group Griffith.; type: functional
[5] = OSM: Kinetic solubility pH 6.5 isotonic phosphate buffer.; type: ADME
[6] = OSM: Microsomal stability: 0.5 uM substrate, 0.4 mg/mL protein, NADPH cofactor). Analysed by LC/MS. In vitro CLint (uL/min/mg protein).; type: ADME, Microsome; details: human, microsomes
[7] = OSM: Microsomal stability: 0.5 uM substrate, 0.4 mg/mL protein, NADPH cofactor. Analysed by LC/MS. Degradation half life (min).; type: ADME, Microsome; details: human, microsomes
[8] = OSM: Microsomal stability: 0.5 uM substrate, 0.4 mg/mL protein, NADPH cofactor. Analysed by LC/MS. Degradation rate classification.; type: ADME, Microsome; details: human, microsomes
[9] = OSM: HEK293 cytotoxicity assay. Duplicate point single experiment at 120 uM. Avery Group, Griffith.; type: toxicity, cell-based; details: human, HEK293 cells; read-out: Inhibition
[10] = OSM: Kinetic solubility pH 2 0.01 M HCl ug/mL.; type: ADME
Plasmodium berghei = experiment: OSM: Mice are infected intravenously with parasitized red blood cells on day 0 (2 x 10^7 parasitized erythrocytes per ml). Experimental mice are generally treated at 4, 24, 48, and 72 hours post-infection with an oral dose of the compound (50 mg/kg, 4-day test by Peters) and are compared to an infected control group for reduction in parasitaemia on day 4 (96 hours post-infection) as a percentage.; type: functional, organism-based; details: Mus musculus; Swiss; Plasma
Plasmodium falciparum K1 [11] = experiment: OSM: Inhibition of Plasmodium falciparum K1 growth. IC50 values determined from 21 point dose response curves. Avery Group Griffith.; type: functional, organism-based
Plasmodium falciparum K1 [12] = experiment: OSM: Percent inhibition of Plasmodium falciparum K1 growth at 120 uM. Avery Group Griffith.; type: functional
Plasmodium falciparum [13] = experiment: OSM: Percent inhibition of Plasmodium falciparum 3D7 growth at 120 uM. Avery Group Griffith.; type: functional
Plasmodium falciparum [14] = experiment: OSM: Late stage gametocytes. IC50 values determined from 21 point dose response curves. Avery Group Griffith.; type: functional, organism-based; details: Pfs16-GFP transgenic NF54
[15] = OSM: HEK293 cytotoxicity assay. IC50 values determined from 21 point dose response curves. Avery Group Griffith.; type: toxicity, cell-based; details: human, HEK293 cells
Plasmodium falciparum [16] = experiment: OSM: Percent inhibition of Plasmodium falciparum 3D7 growth at 80 uM. Avery Group Griffith.; type: functional
[17] = molecular target: Voltage-gated inwardly rectifying potassium channel KCNH2 (Homo sapiens, UniProt Q12809); experiment: OSM: hERG, IC50 uM (Essen Bioscience): IonWorks patch clamp electrophysiology. 8 point concentration-response curves were generated using 3-fold serial dilutions from the maximum final assay concentration of 33 uM.; type: functional
Chain of Voltage-gated inwardly rectifying potassium channel KCNH2 (Q12809 whole entry): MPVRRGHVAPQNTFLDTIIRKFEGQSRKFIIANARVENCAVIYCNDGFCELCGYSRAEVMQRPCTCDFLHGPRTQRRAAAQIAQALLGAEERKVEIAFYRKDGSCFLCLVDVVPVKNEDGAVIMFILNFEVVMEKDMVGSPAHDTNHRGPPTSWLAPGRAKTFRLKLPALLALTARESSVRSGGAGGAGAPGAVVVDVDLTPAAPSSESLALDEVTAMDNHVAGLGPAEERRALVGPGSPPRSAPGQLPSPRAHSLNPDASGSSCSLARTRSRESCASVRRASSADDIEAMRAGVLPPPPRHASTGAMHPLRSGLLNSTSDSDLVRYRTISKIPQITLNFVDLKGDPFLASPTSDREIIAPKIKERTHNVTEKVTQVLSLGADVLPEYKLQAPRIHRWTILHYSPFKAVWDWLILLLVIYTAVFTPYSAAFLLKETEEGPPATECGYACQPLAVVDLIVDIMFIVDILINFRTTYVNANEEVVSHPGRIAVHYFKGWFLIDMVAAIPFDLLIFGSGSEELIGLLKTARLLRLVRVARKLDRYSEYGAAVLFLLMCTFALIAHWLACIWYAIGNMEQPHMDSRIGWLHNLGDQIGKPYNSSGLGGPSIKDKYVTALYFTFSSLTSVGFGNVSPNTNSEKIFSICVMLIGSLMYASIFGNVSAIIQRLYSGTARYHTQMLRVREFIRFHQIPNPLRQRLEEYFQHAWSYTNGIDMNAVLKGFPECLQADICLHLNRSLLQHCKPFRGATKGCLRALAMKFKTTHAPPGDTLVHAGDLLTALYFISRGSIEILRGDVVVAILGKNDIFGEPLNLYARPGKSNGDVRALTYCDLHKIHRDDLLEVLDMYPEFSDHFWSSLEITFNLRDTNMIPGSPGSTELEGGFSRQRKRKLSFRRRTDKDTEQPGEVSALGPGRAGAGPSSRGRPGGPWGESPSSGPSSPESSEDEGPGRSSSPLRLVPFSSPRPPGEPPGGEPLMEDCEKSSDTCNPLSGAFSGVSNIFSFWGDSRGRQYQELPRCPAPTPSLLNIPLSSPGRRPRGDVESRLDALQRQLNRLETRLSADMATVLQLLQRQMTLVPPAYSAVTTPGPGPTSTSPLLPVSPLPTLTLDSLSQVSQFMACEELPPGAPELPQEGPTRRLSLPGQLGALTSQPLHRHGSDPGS

| SMILES | IC50 (Plasmodium falciparum [1]) | IC50 (Plasmodium falciparum [2]) | IC50 (Plasmodium falciparum [3]) | other results |
| --- | --- | --- | --- | --- |
| CC(=O)N(C1=NC(=O)/C(=C/c2cc(C)n(-c3ccc(C)cc3)c2C)S1)c1ccccc1 | 326 nM | 156 nM | 25 nM | – |
| Cc1cc(C(=O)CCC(N)=O)c(C)n1-c1ccc(F)cc1 | – | – | – | inhibition at 40 µM (Plasmodium falciparum [4]): 61% |
| Cc1ccc(-n2c(C)cc(/C=C3\S/C(=N\c4ccccc4)NC3=O)c2C)cc1 | 15 nM | 9 nM | 28 nM | solubility kinetic [5]: 2 µg/mL (≈ 5.16 µM); microsomal CLint at 0.5 µM [6]: < 7 µL/min/mg; half-life at 0.5 µM [7]: > 245 min; Relative metabolic rate [8]: Low |
| Cc1cc(C(=O)OCC(=O)Nc2c(C)n(C)n(-c3ccccc3)c2=O)c(C)n1-c1ccc(F)cc1 | 345 nM | – | 245 nM | cytotoxicity at 120 µM [9]: 20%; solubility kinetic [10]: 12.5 µg/mL (≈ 26.2 µM); solubility kinetic [5]: 12.5 µg/mL (≈ 26.2 µM); microsomal CLint at 0.5 µM [6]: 60 µL/min/mg; half-life at 0.5 µM [7]: 29 min; Relative metabolic rate [8]: Moderate; Reduced_parasitemia (Plasmodium berghei): inactive; IC50 (Plasmodium falciparum K1 [11]): 152 nM |
| Cc1cc(/C=C2\S/C(=N\c3ccccc3)NC2=O)c(C)n1-c1ccccn1 | 307 nM | 442 nM | 309 nM | – |
| CCOC(=O)c1cc(C)n(-c2ccc(C(F)(F)F)cc2)c1C | – | – | – | inhibition at 120 µM (Plasmodium falciparum K1 [12]): 20%; cytotoxicity at 120 µM [9]: 75%; inhibition at 120 µM (Plasmodium falciparum [13]): 85% |
| Cc1cccc(-n2c(C)cc(C(=O)N(C)CC(=O)Nc3cc(C)on3)c2C)c1 | – | – | – | inhibition at 40 µM (Plasmodium falciparum [4]): 85% |
| COc1cc(C)c2c(Oc3cccc(C(F)(F)F)c3)c(OC)cc(NC(C)CCCN)c2n1 (stereo not drawn) [TAFENOQUINE] | – | – | – | IC50 (Plasmodium falciparum [14]): 2800 nM |
| Cc1cc(CN2CCCC2)c(C)n1-c1ccc(F)cc1 | – | – | – | inhibition at 40 µM (Plasmodium falciparum [4]): 96% |
| Cc1cc(C(=O)O)c(C)n1-c1ccc(F)cc1 | – | – | > 5000 nM | inhibition at 120 µM (Plasmodium falciparum K1 [12]): 50%; cytotoxicity at 120 µM [9]: 20%; inhibition at 120 µM (Plasmodium falciparum [13]): 75% |
| CC[C@H](C)[C@H](NC(=O)[C@H]([C@@H](C)CC)N(C)C(C)=O)C(=O)N[C@H](C(=O)N[C@@H](CC(C)C)C(=O)[C@@]1(C)CO1)[C@@H](C)O [EPOXOMYCIN] | 4.2 nM | – | – | IC50 [15]: 33.6 nM; IC50 (Plasmodium falciparum [14]): 0.3 nM; IC50 (Plasmodium falciparum K1 [11]): 2.8 nM |
| Cc1cc(C(=O)NCC(N)=O)c(C)n1-c1ccc(F)cc1 | – | > 1000 nM | > 5000 nM | inhibition at 80 µM (Plasmodium falciparum [16]): 25% |
| CC(=O)N(C1=NC(=O)/C(=C/c2cc(C)n(-c3ccc(C(F)(F)F)cc3)c2C)S1)c1ccccc1 | 12 nM | 8 nM | 26 nM | – |
| Cc1cc(/C=C2\S/C(=N\c3ccccc3)N(CC#N)C2=O)c(C)n1-c1ccc(C(F)(F)F)cc1 | 3120 nM | > 1000 nM | > 5000 nM | – |
| CC(=O)N(C1=NC(=O)/C(=C/c2cc(C)n(-c3ccccc3)c2C)S1)c1ccccc1 | 63 nM | 28 nM | 85 nM | – |
| Cc1cc(/C=C2\SC(=Nc3ccccc3)NC2=O)c(C)n1-c1ccccc1 | 26 nM | 11 nM | 36 nM | IC50 [17]: > 33000 nM; Reduced_parasitemia (Plasmodium berghei): inactive |
| CCOC(=O)c1ccc(-n2c(C)cc(/C=C3\S/C(=N/c4ccccc4)NC3=O)c2C)cc1 | 169 nM | 339 nM | 267 nM | – |
| Cc1cc(/C=C2\SC(N(CC#N)c3ccccc3)=NC2=O)c(C)n1-c1ccc(C(F)(F)F)cc1 | – | > 1000 nM | > 5000 nM | – |
| CCOC(=O)c1cc(C)n(-c2ccc(F)cc2)c1C | 12000 nM | – | > 5000 nM | cytotoxicity at 120 µM [9]: 25%; IC50 (Plasmodium falciparum K1 [11]): 12400 nM |
| CCc1nc(N)nc(N)c1-c1ccc(Cl)cc1 [PYRIMETHAMINE] | 8.95 nM | – | – | IC50 [15]: 13900 nM; IC50 (Plasmodium falciparum K1 [11]): 11900 nM |
| Cc1cc(/C=C2\S/C(=N\c3ccccc3)N(c3ccccc3)C2=O)c(C)n1-c1ccc(C(F)(F)F)cc1 | 54 nM | 485 nM | 372 nM | – |
| Cc1cc(C(=O)O)c(C)n1-c1ccc(C(F)(F)F)cc1 | – | – | – | inhibition at 120 µM (Plasmodium falciparum K1 [12]): 0%; cytotoxicity at 120 µM [9]: 0%; inhibition at 120 µM (Plasmodium falciparum [13]): 25% |
